Assay results from patent US11655235B2, “Pyrrolidine and piperidine compounds” (YUHAN CORPORATION, priority 2019, dated 2023).
pIC50: −log10 of the molar value.

Columns and labels:
Recombinant human FAP = molecular target: T1, Recombinant human FAP (Homo sapiens, UniProt Q12884); test: FAP inhibition, fluorogenic substrate Z-Gly-Pro-AMC; format: biochemical; conditions: for inhibition at 1 µM: read-out: hFAP inhibition % at 1 μM
T1 construct: purchased R&D systems
T1 sequence (Q12884 1-760): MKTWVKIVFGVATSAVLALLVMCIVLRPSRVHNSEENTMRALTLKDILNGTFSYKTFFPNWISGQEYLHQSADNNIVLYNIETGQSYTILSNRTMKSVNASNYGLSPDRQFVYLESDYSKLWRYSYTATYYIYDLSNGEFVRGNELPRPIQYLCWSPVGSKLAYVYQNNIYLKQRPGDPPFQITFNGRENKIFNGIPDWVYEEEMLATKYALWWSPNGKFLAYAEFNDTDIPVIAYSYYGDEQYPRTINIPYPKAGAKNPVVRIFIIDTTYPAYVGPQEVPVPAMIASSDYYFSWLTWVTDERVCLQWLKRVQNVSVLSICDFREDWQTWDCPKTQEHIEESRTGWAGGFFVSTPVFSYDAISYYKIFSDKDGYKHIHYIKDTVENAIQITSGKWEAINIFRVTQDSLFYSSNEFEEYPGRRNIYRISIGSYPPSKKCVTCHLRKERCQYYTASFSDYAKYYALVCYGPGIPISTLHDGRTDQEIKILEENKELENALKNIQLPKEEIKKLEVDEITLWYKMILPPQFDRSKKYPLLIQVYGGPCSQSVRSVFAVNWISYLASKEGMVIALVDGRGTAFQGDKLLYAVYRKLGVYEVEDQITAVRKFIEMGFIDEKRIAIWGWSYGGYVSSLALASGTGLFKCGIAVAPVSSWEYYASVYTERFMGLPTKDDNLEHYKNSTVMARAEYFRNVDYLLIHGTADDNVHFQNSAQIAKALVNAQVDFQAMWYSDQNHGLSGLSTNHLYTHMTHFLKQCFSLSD
Summary of the method: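 Recombinant human FAP, 10 ng per reaction, in 50 mM Tris pH 7.5 with 1 M NaCl and 1 mg/ml BSA at 25° C; substrate Z-Gly-Pro-AMC, ≤0.1% DMSO. AMC fluorescence read at ex 380/em 460 nm; % signal-rate decrease vs no-inhibitor control, 8-point curves fitted to a four-parameter logistic for IC50.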

DPP4 = DPP4 (Homo sapiens, UniProt P27487); test: DPP4 inhibition, fluorogenic substrate H-Gly-Pro-AMC; format: biochemical; design: purchased R&D Systems; conditions: for inhibition at 1 µM: read-out: hDPP4 inhibition % at 1 μM
DPP4, sequence (P27487 whole entry): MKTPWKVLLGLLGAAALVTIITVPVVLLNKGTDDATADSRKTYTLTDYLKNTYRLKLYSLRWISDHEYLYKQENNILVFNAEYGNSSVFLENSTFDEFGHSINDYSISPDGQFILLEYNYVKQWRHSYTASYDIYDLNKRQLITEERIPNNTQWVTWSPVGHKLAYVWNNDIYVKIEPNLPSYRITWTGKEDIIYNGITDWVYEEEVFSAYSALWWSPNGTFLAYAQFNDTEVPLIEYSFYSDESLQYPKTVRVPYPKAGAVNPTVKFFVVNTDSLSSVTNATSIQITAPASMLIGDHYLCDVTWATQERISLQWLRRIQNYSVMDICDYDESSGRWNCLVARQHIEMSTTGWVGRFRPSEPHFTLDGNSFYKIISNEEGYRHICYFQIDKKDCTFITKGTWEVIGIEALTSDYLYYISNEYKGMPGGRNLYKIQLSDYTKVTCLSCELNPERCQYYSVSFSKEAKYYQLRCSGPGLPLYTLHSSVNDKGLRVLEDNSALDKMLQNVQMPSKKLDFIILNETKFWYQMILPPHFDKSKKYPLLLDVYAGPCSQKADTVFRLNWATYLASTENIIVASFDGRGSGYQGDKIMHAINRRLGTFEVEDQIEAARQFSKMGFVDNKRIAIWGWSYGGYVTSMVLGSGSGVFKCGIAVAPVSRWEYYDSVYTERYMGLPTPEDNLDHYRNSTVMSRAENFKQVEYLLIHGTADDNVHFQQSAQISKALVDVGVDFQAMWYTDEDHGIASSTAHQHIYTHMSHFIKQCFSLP

[1] = 25° C., Z-Gly-Pro-AMC substrate
[2] = recombinant human FAP, substrate Z-Gly-Pro-AMC

Compound	pIC50 (Recombinant human FAP; [2])	pIC50 (DPP4; recombinant human DPP4)	further results
N#C[C@@H]1CCCN1C(=O)CN1CC[C@H](Oc2cc(OCc3ccccc3)ccn2)C1 [Example 93, (S)-1-(2-((S)-3-((4-(benzyloxy)pyridin-2-yl)oxy)pyrrolidin-1-yl)acetyl)pyrrolidine-2-carbonitrile]			pIC50 (Recombinant human FAP; [1]): 7.16; inhibition at 1 µM (DPP4): 11.6%
N#C[C@@H]1CCCN1C(=O)CN1CC[C@H](Oc2ccnc3cc(C(F)(F)F)ccc23)C1 [Example 94, (S)-1-(2-((S)-3-((7-(trifluoromethyl)quinolin-4-yl)oxy)pyrrolidin-1-yl)acetyl)pyrrolidine-2-carbonitrile]			pIC50 (Recombinant human FAP; [1]): 7.20; inhibition at 1 µM (DPP4): 6.9%
N#C[C@@H]1CCCN1C(=O)CN1CC[C@H](Oc2cccc3cc4ccccc4nc23)C1 [Example 96, (S)-1-(2-((S)-3-(acridin-4-yloxy)pyrrolidin-1-yl)acetyl)pyrrolidine-2-carbonitrile]			pIC50 (Recombinant human FAP; [1]): 6.57; inhibition at 1 µM (DPP4): 11.5%
N#C[C@@H]1CCCN1C(=O)CN1CC[C@H](Oc2ccccc2-c2nc3ccccc3o2)C1 [Example 97, (S)-1-(2-((S)-3-(2-(benzo[d]oxazol-2-yl)phenoxy)pyrrolidin-1-yl)acetyl)pyrrolidine-2-carbonitrile]			inhibition at 1 µM (Recombinant human FAP): 36.3%; inhibition at 1 µM (DPP4): 8.3%
CC(=O)N1CCN(c2ccc(O[C@H]3CCN(CC(=O)N4CCC[C@H]4C#N)C3)cc2)CC1 [Example 98, (S)-1-(2-((S)-3-(4-(4-acetylpiperazin-1-yl)phenoxy)pyrrolidin-1-yl)acetyl)pyrrolidine-2-carbonitrile]			inhibition at 1 µM (Recombinant human FAP): 63.2%; inhibition at 1 µM (DPP4): 9.1%
N#C[C@@H]1CCCN1C(=O)CN1CC[C@H](Oc2ccccc2C(=O)Nc2ccccc2)C1 [Example 99, 2-(((S)-1-(2-((S)-2-cyanopyrrolidin-1-yl)-2-oxoethyl)pyrrolidin-3-yl)oxy)-N-phenylbenzamide]			inhibition at 1 µM (Recombinant human FAP): 18.2%; inhibition at 1 µM (DPP4): 10.9%
N#C[C@@H]1CCCN1C(=O)CN1CC[C@H](Oc2cc(-c3ccc(Br)cc3)no2)C1 [Example 102, (S)-1-(2-((S)-3-((3-(4-bromophenyl)isoxazol-5-yl)oxy)pyrrolidin-1-yl)acetyl)pyrrolidine-2-carbonitrile]			inhibition at 1 µM (Recombinant human FAP): 52.4%; inhibition at 1 µM (DPP4): 6.2%
N#C[C@@H]1C[C@@H]2C[C@@H]2N1C(=O)CN1CCC(Nc2ccnc3ccccc23)CC1 [Example 112, (1S,3S,5S)-2-(2-(4-(quinolin-4-ylamino)piperidin-1-yl)acetyl)-2-azabicyclo[3.1.0]hexane-3-carbonitrile]			pIC50 (Recombinant human FAP; [1]): 7.72; hDPP4 inhibition % at 1 μM (DPP4): No inhibition**
N#C[C@@H]1CCCN1C(=O)CN1CCC(Nc2cncc3ccoc23)CC1 [Example 116, (S)-1-(2-(4-(furo[3,2-c]pyridin-7-ylamino)piperidin-1-yl)acetyl)pyrrolidine-2-carbonitrile]			inhibition at 1 µM (Recombinant human FAP): 82.4%; hDPP4 inhibition % at 1 μM (DPP4): No inhibition**
N#C[C@@H]1CCCN1C(=O)CN1CCC(Oc2cnc3ccccc3c2)CC1 [Example 117, (S)-1-(2-(4-(quinolin-3-yloxy)piperidin-1-yl)acetyl)pyrrolidine-2-carbonitrile]			pIC50 (Recombinant human FAP; [1]): 7.64; hDPP4 inhibition % at 1 μM (DPP4): No inhibition**
N#C[C@@H]1CCCN1C(=O)CN1CCC(Oc2ccc3ncccc3c2)CC1 [Example 120, (S)-1-(2-(4-(quinolin-6-yloxy)piperidin-1-yl)acetyl)pyrrolidine-2-carbonitrile]			pIC50 (Recombinant human FAP; [1]): 7.93; hDPP4 inhibition % at 1 μM (DPP4): No inhibition**
Cc1ccc2ncccc2c1NC1CCN(CC(=O)N2C[C@@H](F)C[C@H]2C#N)CC1 [Example 134, (2S,4S)-4-fluoro-1-(2-(4-((6-methylquinolin-5-yl)amino)piperidin-1-yl)acetyl)pyrrolidine-2-carbonitrile]			pIC50 (Recombinant human FAP; [1]): 6.47; pIC50 (DPP4; 25° C., H-Gly-Pro-AMC substrate): 5.10
COc1ccc2ncccc2c1N[C@H]1CCN(CC(=O)N2CCC[C@H]2C#N)C1 [Example 240, (2S)-1-[2-[(3S)-3-[(6-methoxy-5-quinolyl)amino]pyrrolidin-1-yl]acetyl]pyrrolidine-2-carbonitrile]	7.70	< 5.00	
CN(c1ccc2ccccc2n1)C1CCN(CC(=O)N2CCC[C@H]2C#N)CC1 [Example 307, (2S)-1-[2-[4-[methyl(2-quinolyl)amino]-1-piperidyl]acetyl]pyrrolidine-2-carbonitrile]	7.33	< 5.00	
CN(c1ccnc2ccccc12)C1CCN(CC(=O)N2CCC[C@H]2C#N)CC1 [Example 308, (2S)-1-[2-[4-[methyl(4-quinolyl)amino]-1-piperidyl]acetyl]pyrrolidine-2-carbonitrile]	7.01	< 5.00	
CN(c1cccc2ncccc12)C1CCN(CC(=O)N2CCC[C@H]2C#N)CC1 [Example 309, (2S)-1-[2-[4-[methyl(5-quinolyl)amino]-1-piperidyl]acetyl]pyrrolidine-2-carbonitrile]	7.17	< 5.00	
CN(c1cncc2ccoc12)C1CCN(CC(=O)N2CCC[C@H]2C#N)CC1 [Example 312, (2S)-1-[2-[4-[furo[3,2-c]pyridin-7-yl(methyl)amino]-1-piperidyl]acetyl]pyrrolidine-2-carbonitrile]	7.50	< 5.00	
CN(c1cccc2cnccc12)C1CCN(CC(=O)N2C[C@@H](F)C[C@H]2C#N)CC1 [Example 318, (2S,4S)-4-fluoro-1-[2-[4-[5-isoquinolyl(methyl)amino]-1-piperidyl]acetyl]pyrrolidine-2-carbonitrile]	7.74	< 5.00	
CN(c1cccc2ccncc12)C1CCN(CC(=O)N2C[C@@H](F)C[C@H]2C#N)CC1 [Example 320, (2S,4S)-4-fluoro-1-[2-[4-[8-isoquinolyl(methyl)amino]-1-piperidyl]acetyl]pyrrolidine-2-carbonitrile]	7.34	6.39	
N#C[C@@H]1C[C@H](F)CN1C(=O)CN1CCC(Nc2ccc(OCc3ccccc3)c3ncccc23)CC1 [Example 332, (2S,4S)-1-[2-[4-[(8-benzyloxy-5-quinolyl)amino]-1-piperidyl]acetyl]-4-fluoro-pyrrolidine-2-carbonitrile]	8.26	5.21	
N#C[C@@H]1C[C@H](F)CN1C(=O)CN1CCC(Nc2cccc3ncc(Cl)cc23)CC1 [Example 333, (2S,4S)-1-[2-[4-[(3-chloro-5-quinolyl)amino]-1-piperidyl]acetyl]-4-fluoro-pyrrolidine-2-carbonitrile]	8.59	5.12	
N#Cc1ccc2c(NC3CCN(CC(=O)N4C[C@@H](F)C[C@H]4C#N)CC3)cccc2n1 [Example 335, 5-[[1-[2-oxo-2-[(2S,4S)-2-cyano-4-fluoro-pyrrolidin-1-yl]ethyl]-4-piperidyl]amino]quinoline-2-carbonitrile]	8.23	5.14	
N#C[C@@H]1C[C@H](F)CN1C(=O)CN1CCC(Nc2ccc3cnccc3c2)CC1 [Example 341, (2S,4S)-4-fluoro-1-[2-[4-(6-isoquinolylamino)-1-piperidyl]acetyl]pyrrolidine-2-carbonitrile]	7.64	< 5.00	
N#C[C@@H]1C[C@H](F)CN1C(=O)CN1CCC(Oc2cccc3ncc(F)cc23)CC1 [Example 416, (2S,4S)-4-fluoro-1-[2-[4-[(3-fluoro-5-quinolyl)oxy]-1-piperidyl]acetyl]pyrrolidine-2-carbonitrile]	8.64	5.17	
